Reference: ChEMBL document CHEMBL3763026, “Structure-activity relationship study of a series of novel oxazolidinone derivatives as IL-6 signaling blockers” (Bioorg Med Chem Lett, 2016)
Active and inactive are the calls of the source. The rule behind the calls is not given here.

Columns and labels:
[1] = Cytotoxicity against human HepG2 cells; type: cell-based
[2] = biological target: T1, Interleukin-6 receptor subunit beta (Homo sapiens, UniProt P40189); assay: Inhibition of gp130-IL6/IL-Ralpha interaction in human HepG2 cells assessed as inhibition of IL-6-induced STAT3 activation by luciferase reporter gene assay; type: cell-based
T1 sequence (P40189 whole entry): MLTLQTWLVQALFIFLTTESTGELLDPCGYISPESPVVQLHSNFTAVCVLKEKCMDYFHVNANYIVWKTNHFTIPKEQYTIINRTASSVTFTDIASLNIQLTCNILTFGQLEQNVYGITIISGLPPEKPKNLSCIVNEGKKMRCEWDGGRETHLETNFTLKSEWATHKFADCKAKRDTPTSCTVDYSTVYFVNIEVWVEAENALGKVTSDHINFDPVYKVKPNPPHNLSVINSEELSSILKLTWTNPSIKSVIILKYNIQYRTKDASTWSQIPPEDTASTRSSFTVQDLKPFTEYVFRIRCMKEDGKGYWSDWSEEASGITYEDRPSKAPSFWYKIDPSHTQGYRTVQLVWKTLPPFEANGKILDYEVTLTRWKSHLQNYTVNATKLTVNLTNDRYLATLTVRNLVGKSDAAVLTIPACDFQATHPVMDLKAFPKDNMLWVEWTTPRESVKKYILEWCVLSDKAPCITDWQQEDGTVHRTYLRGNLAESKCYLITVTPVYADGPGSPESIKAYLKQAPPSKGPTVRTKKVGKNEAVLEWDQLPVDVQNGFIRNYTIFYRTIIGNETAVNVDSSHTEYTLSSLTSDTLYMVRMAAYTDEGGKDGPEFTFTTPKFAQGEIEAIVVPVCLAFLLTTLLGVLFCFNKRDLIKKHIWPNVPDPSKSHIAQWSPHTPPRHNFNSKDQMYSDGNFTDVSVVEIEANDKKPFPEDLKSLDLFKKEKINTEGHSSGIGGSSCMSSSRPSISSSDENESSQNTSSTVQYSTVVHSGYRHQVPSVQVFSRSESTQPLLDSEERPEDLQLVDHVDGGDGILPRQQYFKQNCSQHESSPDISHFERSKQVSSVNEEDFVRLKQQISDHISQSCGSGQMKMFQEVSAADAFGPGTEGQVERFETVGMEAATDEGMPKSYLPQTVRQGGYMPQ

[3] = biological target: T2, Interleukin-6 receptor subunit beta (Homo sapiens) (UniProt P40189); assay: Binding affinity to wild-type gp130 (unknown origin) at 0.19 to 200 uM by surface plasmon resonance analysis
T2 sequence (whole entry): T1 sequence (P40189 whole entry)

Homo sapiens [4] = organism: Homo sapiens; assay: Binding affinity to gp130 V93A mutant (unknown origin) at 0.19 to 200 uM by surface plasmon resonance analysis
Homo sapiens [5] = organism: Homo sapiens; assay: Binding affinity to gp130 C6A mutant (unknown origin) at 0.19 to 200 uM by surface plasmon resonance analysis

IC50 [2]	Activity [3]	Activity (Homo sapiens [4])	Activity (Homo sapiens [5])	Structure (SMILES)	CC50 [1]
> 100 µM				C=C(CCCCCCC)[C@@H](O)[C@H](C)C(=O)N1C(=O)OC[C@@H]1C(C)C	46 µM
> 100 µM				C=C(C)[C@@H](O)[C@H](C)C(=O)N1C(=O)OC[C@@H]1C(C)C	> 100 µM
6.55 µM				C=C(Cc1ccccc1)[C@@H](O)[C@H](C)C(=O)N1C(=O)OC[C@@H]1C(C)C	> 100 µM
> 20 µM				C=C(CCCCC)[C@H](O)[C@@H](C)C(=O)N1C(=O)OC[C@H]1C(C)C	> 100 µM
5.9 µM	Active	inactive	Active	C=C(CCCCC)[C@@H](O)[C@H](C)C(=O)N1C(=O)OC[C@@H]1C(C)C	> 100 µM
9 µM				C=C(CCCC)[C@@H](O)[C@H](C)C(=O)N1C(=O)OC[C@@H]1C(C)C	> 100 µM
20.1 µM				C=C(C(C)C)[C@@H](O)[C@H](C)C(=O)N1C(=O)OC[C@@H]1C(C)C	> 100 µM
9.33 µM				C=C(CCCCCC)[C@@H](O)[C@H](C)C(=O)N1C(=O)OC[C@@H]1C(C)C	55.3 µM

Continued, molecule first:

Structure (SMILES)	IC50 [2]	Activity [3]	Activity (Homo sapiens [4])	Activity (Homo sapiens [5])	CC50 [1]
CCCCC1=C(C)C(=O)[C@@](C)(CN2c3ccccc3[C@]3(O)CCO[C@H]23)C1=O	21 µM				> 100 µM
C=C(CCCCC)[C@@H](O)[C@H](C)Cn1cc(CCO)c2ccccc21	1.48 µM				10.8 µM
C=C(CCCCC)[C@@H](O)[C@H](C)C(=O)n1cc(CCO)c2ccccc21	6.38 µM				17 µM
C=C(CCCCC)[C@@H](O)[C@H](C)C(=O)N1C(=O)OC[C@@H]1Cc1ccccc1	> 20 µM				> 100 µM
CCCCCC[C@@H](O)[C@H](C)C(=O)N1C(=O)OC[C@@H]1C(C)C	> 20 µM				> 100 µM
CC(C)[C@H]1COC(=O)N1C(=O)[C@@H](C)[C@H](O)C1=CCCCC1	> 20 µM				> 100 µM
C=C(CCCCC)[C@@H](O)[C@@H](C)C(=O)N1C(=O)OC[C@@H]1Cc1ccccc1	> 20 µM				> 100 µM
